For 33 compounds, IC50 results are on record in patent US20130345215A1, “PYRAZOLOPYRIMIDONE AND PYRAZOLOPYRIDONE INHIBITORS OF TANKYRASE” (Genentech, Inc., priority 2012, published 2013).

One may read the IC50 as the concentration that gives 50% inhibition.

The assay deals with Wnt stimulated TCF transcriptional activity, HEK293-TS 112 TCF reporter cell line. Kind of assay: Tankyrase 1 Assay (Example 119): Wnt3A-stimulated TOPbrite TCF luciferase reporter. It counts as cell-based. Particulars: Compounds I-59 to I-144, procedure in Example 119 (0.5 ug/mL Wnt3A, 16 hours); read-out: TNKS1 (IC50). As to the method: Inhibition of the Wnt stimulated TCF transcriptional activity by tankyrase inhibitors was determined utilizing a HEK293-TS 112 TCF reporter cell line. A Wnt-responsive luciferase reporter named TOPbrite was constructed by cloning the enhancer element of Super8xTOPFlash containing eight TCF/LEF binding sites into the pGL4.28 vector (Promega) upstream of the minimal promoter element, and selecting for hygromycin B resistance (50 μg/ml). Cells were seeded into 384-well plates in the presence of 0.5 ug/mL of Wnt3A at a density of 20,000 cells per well in 25 ul of F:12 DMEM media supplemented with 10% FBS and 2 mM Glutamax. Cells seeded without the addition of Wnt3A were used as background signal. Compounds of various concentrations were added to cells and incubated at 37 degrees with 5% CO2 for 16 hours. The assay was terminated with the addition of Promega Dual Glo kit per manufacturer's instructions. A ratio of TOPbrite Firefly Luciferase and SV40 Renillla Luciferase was calculated and the background from the neutral wells was subtracted yielding the final normalized measurement of TCF transcriptional activity. Compound IC50s were determined by four-parameter curve fitting using GeneData software.
(In general: In a reporter assay the amount or activity of a reporter protein is the signal.)

`Cn1nccc1CN1CCN(c2nc3c(cnn3C)c(=O)[nH]2)CC1` [Compound I-132, 1-methyl-6-[4-((2-methylpyrazol-3-yl)methyl]piperazin-1-yl]-5H-pyrazolo[3 4-d]pyrimidin-4-one]: the IC50 amounted to 329 nM.

As for `Cn1ncc2c(=O)[nH]c(-c3ccc(S(=O)(=O)C4CCCCC4)cc3)nc21` [Compound I-125, 6-(4-cyclohexylsulfonylphenyl)-1-methyl-5H-pyrazolo[3 4-d]pyrimidin-4-one], the IC50 is 178 nM.

`Cc1c[nH]nc1C1CCN(c2nc3c(cnn3C)c(=O)[nH]2)CC1` [Compound I-115, 1-methyl-6-[4-(4-methyl-1H-pyrazol-3-yl)-1-piperidyl]-5H-pyrazolo[3 4-d]pyrimidin-4-one]: the IC50 stood at 107 nM.

For `CC(O)c1cc(F)c(N2CCN(c3nc4c(cnn4C)c(=O)[nH]3)CC2)c(F)c1` (stereo not drawn) [Compound I-69, 6-[4-[2 6-difluoro-4-(1-hydroxyethyl)phenyl]piperazin-1-yl]-1-methyl-5H-pyrazolo[3 4-d]pyrimidin-4-one], the IC50 came out at 7.8 nM.

In the case of `CN1CCN(Cc2cc(F)c(N3CCN(c4nc5c(cnn5C)c(=O)[nH]4)CC3)c(F)c2)CC1` [Compound I-60, 6-[4-[2 6-difluoro-4-[(4-methylpiperazin-1-yl)methyl]phenyl]piperazin-1-yl]-1-methyl-5H-pyrazolo[3 4-d]pyrimidin-4-one], the half-maximal inhibitory concentration (IC50) was 3.8 nM.

Turning to `Cn1ncc2c(=O)[nH]c(N3CCC(S(C)(=O)=O)CC3)nc21` [Compound I-141, 1-methyl-6-(4-methylsulfonyl-1-piperidyl)-5H-pyrazolo[3 4-d]pyrimidin-4-one], the IC50 amounted to 652 nM.

As to `Cn1ncc2c(=O)[nH]c(N3CCC(C)(c4ccn(CC(C)(C)O)n4)CC3)nc21` [Compound I-127, 6-[4-[1-(2-hydroxy-2-methyl-propyl)pyrazol-3-yl)-4-methyl-1-piperidyl]-1-methyl-5H-pyrazolo[3 4-d]pyrimidin-4-one], the half-maximal inhibitory concentration (IC50) is 223 nM.

As for `Cn1ncc2c(=O)[nH]c(-c3ccc(S(C)(=O)=O)cc3)nc21` [Compound I-102, 1-methyl-6-(4-methylsulfonylphenyl)-5H-pyrazolo[3 4-d]pyrimidin-4-one], the IC50 turned out to be 47.9 nM.

In the case of `COCCOc1cc(F)c(N2CCN(c3nc4[nH]ncc4c(=O)[nH]3)CC2)c(F)c1` [Compound I-77, 6-[4-[2 6-difluoro-4-(2-methoxyethoxy)phenyl]piperazin-1-yl]-1 5-dihydropyrazolo[3 4-d]pyrimidin-4-one], the IC50 was determined as 11.8 nM.

Consider `Cn1ncc2c(=O)[nH]c(N3CCC(S(=O)(=O)CC4CCCCC4)CC3)nc21` [Compound I-135, 6-[4-(cyclohexylmethylsulfonyl)-1-piperidyl]-1-methyl-5H-pyrazolo[3 4-d]pyrimidin-4-one], for which the IC50 was 406 nM.

For the compound `Cn1ncc2c(=O)[nH]c(N3CCN(C4CC5CCC4C5)CC3)nc21` (stereo not drawn) [Compound I-103, 1-methyl-6-(4-norbornan-2-ylpiperazin-1-yl)-5H-pyrazolo[3 4-d]pyrimidin-4-one], the IC50 was found to be 50.2 nM.

Regarding `Cn1ncc2c(=O)[nH]c(N3CCC(n4cccn4)CC3)nc21` [Compound I-112, 1-methyl-6-(4-pyrazol-1-yl-1-piperidyl)-5H-pyrazolo[3 4-d]pyrimidin-4-one], the IC50 came to 88.3 nM.

Consider `COCCOc1cc(F)c(N2CCN(c3nc4c(cnn4CC(C)(C)O)c(=O)[nH]3)CC2)c(F)c1` [Compound I-143, 6-[4-[2 6-difluoro-4-(2-methoxyethoxy)phenyl]piperazin-1-yl]-1-(2-hydroxy-2-methyl-propyl)-5H-pyrazolo[3 4-d]pyrimidin-4-one], for which the IC50 worked out at 795 nM.

Consider `Cn1ccc(C2(C)CCN(c3nc4c(cnn4C)c(=O)[nH]3)CC2)n1` [Compound I-90, 1-methyl-6-[4-methyl-4-(1-methylpyrazol-3-yl)-1-piperidyl]-5H-pyrazolo[3 4-d]pyrimidin-4-one], for which the half-maximal inhibitory concentration (IC50) was determined as 23.6 nM.

Take `Cn1ncc2c(=O)[nH]c(N3CCN([C@H]4CC[C@@H](O)CC4)CC3)nc21` [Compound I-124, 6-[4-(4-hydroxycyclohexyl)piperazin-1-yl]-1-methyl-5H-pyrazolo[3 4-d]pyrimidin-4-one]: the half-maximal inhibitory concentration (IC50) turned out to be 171 nM.

In the case of `C[C@H](N)C(=O)OCCOc1cc(F)c(N2CCN(c3nc4c(cnn4C)c(=O)[nH]3)CC2)c(F)c1` [Compound I-59, 2-[3 5-difluoro-4-[4-(1-methyl-4-oxo-5H-pyrazolo[3 4-d]pyrimidin-6-yl)piperazin-1-yl]phenoxy]ethyl (2S)-2-aminopropanoate], the half-maximal inhibitory concentration (IC50) turned out to be 3.7 nM.

Turning to `Cn1ncc2c(=O)[nH]c(N3CCC(Cc4cccnc4)C3)nc21` (stereo not drawn) [Compound I-137, 1-methyl-6-[3-(3-pyridylmethyl)pyrrolidin-1-yl]-5H-pyrazolo[3 4-d]pyrimidin-4-one], the half-maximal inhibitory concentration (IC50) was 490 nM.

Consider `COCCOc1cc(F)c(C2(O)CCN(c3nc4c(cnn4C)c(=O)[nH]3)CC2)c(F)c1` [Compound I-83, 6-[4-[2 6-difluoro-4-(2-methoxyethoxy)phenyl]-4-hydroxy-1-piperidyl]-1-methyl-5H-pyrazolo[3 4-d]pyrimidin-4-one], for which the IC50 worked out at 15.3 nM.

Turning to `Cn1ncc2c(=O)[nH]c(N3CCC(Cc4ccccn4)CC3)nc21` [Compound I-117, 1-methyl-6-[4-(2-pyridylmethyl)-1-piperidyl]-5H-pyrazolo[3 4-d]pyrimidin-4-one], the IC50 was determined as 112 nM.

For the compound `CC(C)n1ccc(C2(C)CCN(c3nc4c(cnn4C)c(=O)[nH]3)CC2)n1` [Compound I-119, 6-[4-(1-isopropylpyrazol-3-yl)-4-methyl-1-piperidyl]-1-methyl-5H-pyrazolo[3 4-d]pyrimidin-4-one], the half-maximal inhibitory concentration (IC50) was 124 nM.

For the compound `Cn1ncc2c(=O)[nH]c(N3CCN(C4CCN(C(=O)OC(C)(C)C)CC4)CC3)nc21` [Compound I-131, tert-butyl 4-[4-(1-methyl-4-oxo-5H-pyrazolo[3 4-d]pyrimidin-6-yl)piperazin-1-yl]piperidine-1-carboxylate], the IC50 is 317 nM.

`CCCn1ccc(C2(C)CCN(c3nc4c(cnn4C)c(=O)[nH]3)CC2)n1` [Compound I-98, 1-methyl-6-[4-methyl-4-(1-propylpyrazol-3-yl)-1-piperidyl]-5H-pyrazolo[3 4-d]pyrimidin-4-one]: the IC50 came to 37.4 nM.

On to `Cn1ncc2c(=O)[nH]c(N3CCC(C)(c4cc[nH]n4)CC3)nc21` [Compound I-82, 1-methyl-6-[4-methyl-4-(1H-pyrazol-3-yl)-1-piperidyl]-5H-pyrazolo[3 4-d]pyrimidin-4-one], for which the concentration for half-maximal inhibition (IC50) came out at 15.1 nM.

Take `Cn1ncc2c(=O)[nH]c(N3CCN(c4c(F)cc(OCCO)cc4F)CC3)nc21` [Compound I-78, 6-[4-[2 6-difluoro-4-(2-hydroxyethoxy)phenyl]piperazin-1-yl]-1-methyl-5H-pyrazolo[3 4-d]pyrimidin-4-one]: the half-maximal inhibitory concentration (IC50) turned out to be 12 nM.

In the case of `Cn1ncc2c(=O)[nH]c(N3CCC(c4ccccn4)CC3)nc21` [Compound I-111, 1-methyl-6-[4-(2-pyridyl)-1-piperidyl]-5H-pyrazolo[3 4-d]pyrimidin-4-one], the IC50 turned out to be 83.8 nM.

For `CC(O)Cn1ccc(C2(C)CCN(c3nc4c(cnn4C)c(=O)[nH]3)CC2)n1` (stereo not drawn) [Compound I-99, 6-[4-[1-(2-hydroxypropyl)pyrazol-3-yl]-4-methyl-1-piperidyl]-1-methyl-5H-pyrazolo[3 4-d]pyrimidin-4-one], the IC50 worked out at 41.9 nM.

`CC(C)[C@H](N)C(=O)OCCOc1cc(F)c(N2CCN(c3nc4c(cnn4C)c(=O)[nH]3)CC2)c(F)c1` [Compound I-61, 2-[3 5-difluoro-4-[4-(1-methyl-4-oxo-5H-pyrazolo[3 4-d]pyrimidin-6-yl)piperazin-1-yl]phenoxy]ethyl (2S)-2-amino-3-methyl-butanoate]: the IC50 came out at 4.2 nM.

Take `Cn1ncc2c(=O)[nH]c(N3CCN(C4CCOCC4)CC3)nc21` [Compound I-130, 1-methyl-6-(4-tetrahydropyran-4-ylpiperazin-1-yl)-5H-pyrazolo[3 4-d]pyrimidin-4-one]: the IC50 stood at 315 nM.

Take `Cn1ncc2c(=O)[nH]c(N3CCN(S(C)(=O)=O)CC3)nc21` [Compound I-142, 1-methyl-6-(4-methylsulfonylpiperazin-1-yl)-5H-pyrazolo[3 4-d]pyrimidin-4-one]: the IC50 was 740 nM.

Regarding `Cc1cc(CN2CCN(c3nc4c(cnn4C)c(=O)[nH]3)CC2)no1` [Compound I-140, 1-methyl-6-[4-[(5-methylisoxazol-3-yl)methyl]piperazin-1-yl]-5H-pyrazolo[3 4-d]pyrimidin-4-one], the concentration for half-maximal inhibition (IC50) came to 566 nM.

Consider `Cn1nccc1C1(C)CCN(c2nc3c(cnn3C)c(=O)[nH]2)CC1` [Compound I-96, 1-methyl-6-[4-methyl-4-(2-methylpyrazol-3-yl)-1-piperidyl)-5H-pyrazolo[3 4-d]pyrimidin-4-one], for which the concentration for half-maximal inhibition (IC50) amounted to 28.4 nM.

For `Cn1ncc2c(=O)[nH]c(N3CCN(c4c(F)cc(CN5CCOCC5)cc4F)CC3)nc21` [Compound I-67, 6-[4-[2 6-difluoro-4-(morpholinomethyl)phenyl]piperazin-1-yl]-1-methyl-5H-pyrazolo[3 4-d]pyrimidin-4-one], the IC50 stood at 6.9 nM.

For the compound `COCCOc1cc(F)c(N2CCN(c3nc4c(cnn4CC(C)O)c(=O)[nH]3)CC2)c(F)c1` (stereo not drawn) [Compound I-126, 6-[4-[2 6-difluoro-4-(2-methoxyethoxy)phenyl]piperazin-1-yl]-1-(2-hydroxypropyl)-5H-pyrazolo[3 4-d]pyrimidin-4-one], the IC50 was 220 nM.
